According to patent US9586951B2 (FUJIFILM Corporation, priority 2013, dated 2017):

What follows are compounds tested against T1, ATM (Homo sapiens, UniProt Q13315) (assay: ATM inhibition test (phosphorylation of Chk2 generated by ionizing radiation, AlphaScreen SureFire)). Conditions: phosphorylated Chk2 in NCI-H460 cells, ionizing radiation 8Gy, 1 hour after test compound treatment; read-out: ATM inhibitory activity.
T1 construct: detecting phosphorylation of Chk2 in a human non-small cell lung cancer cell line NCI-H460 (ATCC company); host or cells: NCI-H460 human non-small cell lung cancer cells
T1 sequence (Q13315 whole entry): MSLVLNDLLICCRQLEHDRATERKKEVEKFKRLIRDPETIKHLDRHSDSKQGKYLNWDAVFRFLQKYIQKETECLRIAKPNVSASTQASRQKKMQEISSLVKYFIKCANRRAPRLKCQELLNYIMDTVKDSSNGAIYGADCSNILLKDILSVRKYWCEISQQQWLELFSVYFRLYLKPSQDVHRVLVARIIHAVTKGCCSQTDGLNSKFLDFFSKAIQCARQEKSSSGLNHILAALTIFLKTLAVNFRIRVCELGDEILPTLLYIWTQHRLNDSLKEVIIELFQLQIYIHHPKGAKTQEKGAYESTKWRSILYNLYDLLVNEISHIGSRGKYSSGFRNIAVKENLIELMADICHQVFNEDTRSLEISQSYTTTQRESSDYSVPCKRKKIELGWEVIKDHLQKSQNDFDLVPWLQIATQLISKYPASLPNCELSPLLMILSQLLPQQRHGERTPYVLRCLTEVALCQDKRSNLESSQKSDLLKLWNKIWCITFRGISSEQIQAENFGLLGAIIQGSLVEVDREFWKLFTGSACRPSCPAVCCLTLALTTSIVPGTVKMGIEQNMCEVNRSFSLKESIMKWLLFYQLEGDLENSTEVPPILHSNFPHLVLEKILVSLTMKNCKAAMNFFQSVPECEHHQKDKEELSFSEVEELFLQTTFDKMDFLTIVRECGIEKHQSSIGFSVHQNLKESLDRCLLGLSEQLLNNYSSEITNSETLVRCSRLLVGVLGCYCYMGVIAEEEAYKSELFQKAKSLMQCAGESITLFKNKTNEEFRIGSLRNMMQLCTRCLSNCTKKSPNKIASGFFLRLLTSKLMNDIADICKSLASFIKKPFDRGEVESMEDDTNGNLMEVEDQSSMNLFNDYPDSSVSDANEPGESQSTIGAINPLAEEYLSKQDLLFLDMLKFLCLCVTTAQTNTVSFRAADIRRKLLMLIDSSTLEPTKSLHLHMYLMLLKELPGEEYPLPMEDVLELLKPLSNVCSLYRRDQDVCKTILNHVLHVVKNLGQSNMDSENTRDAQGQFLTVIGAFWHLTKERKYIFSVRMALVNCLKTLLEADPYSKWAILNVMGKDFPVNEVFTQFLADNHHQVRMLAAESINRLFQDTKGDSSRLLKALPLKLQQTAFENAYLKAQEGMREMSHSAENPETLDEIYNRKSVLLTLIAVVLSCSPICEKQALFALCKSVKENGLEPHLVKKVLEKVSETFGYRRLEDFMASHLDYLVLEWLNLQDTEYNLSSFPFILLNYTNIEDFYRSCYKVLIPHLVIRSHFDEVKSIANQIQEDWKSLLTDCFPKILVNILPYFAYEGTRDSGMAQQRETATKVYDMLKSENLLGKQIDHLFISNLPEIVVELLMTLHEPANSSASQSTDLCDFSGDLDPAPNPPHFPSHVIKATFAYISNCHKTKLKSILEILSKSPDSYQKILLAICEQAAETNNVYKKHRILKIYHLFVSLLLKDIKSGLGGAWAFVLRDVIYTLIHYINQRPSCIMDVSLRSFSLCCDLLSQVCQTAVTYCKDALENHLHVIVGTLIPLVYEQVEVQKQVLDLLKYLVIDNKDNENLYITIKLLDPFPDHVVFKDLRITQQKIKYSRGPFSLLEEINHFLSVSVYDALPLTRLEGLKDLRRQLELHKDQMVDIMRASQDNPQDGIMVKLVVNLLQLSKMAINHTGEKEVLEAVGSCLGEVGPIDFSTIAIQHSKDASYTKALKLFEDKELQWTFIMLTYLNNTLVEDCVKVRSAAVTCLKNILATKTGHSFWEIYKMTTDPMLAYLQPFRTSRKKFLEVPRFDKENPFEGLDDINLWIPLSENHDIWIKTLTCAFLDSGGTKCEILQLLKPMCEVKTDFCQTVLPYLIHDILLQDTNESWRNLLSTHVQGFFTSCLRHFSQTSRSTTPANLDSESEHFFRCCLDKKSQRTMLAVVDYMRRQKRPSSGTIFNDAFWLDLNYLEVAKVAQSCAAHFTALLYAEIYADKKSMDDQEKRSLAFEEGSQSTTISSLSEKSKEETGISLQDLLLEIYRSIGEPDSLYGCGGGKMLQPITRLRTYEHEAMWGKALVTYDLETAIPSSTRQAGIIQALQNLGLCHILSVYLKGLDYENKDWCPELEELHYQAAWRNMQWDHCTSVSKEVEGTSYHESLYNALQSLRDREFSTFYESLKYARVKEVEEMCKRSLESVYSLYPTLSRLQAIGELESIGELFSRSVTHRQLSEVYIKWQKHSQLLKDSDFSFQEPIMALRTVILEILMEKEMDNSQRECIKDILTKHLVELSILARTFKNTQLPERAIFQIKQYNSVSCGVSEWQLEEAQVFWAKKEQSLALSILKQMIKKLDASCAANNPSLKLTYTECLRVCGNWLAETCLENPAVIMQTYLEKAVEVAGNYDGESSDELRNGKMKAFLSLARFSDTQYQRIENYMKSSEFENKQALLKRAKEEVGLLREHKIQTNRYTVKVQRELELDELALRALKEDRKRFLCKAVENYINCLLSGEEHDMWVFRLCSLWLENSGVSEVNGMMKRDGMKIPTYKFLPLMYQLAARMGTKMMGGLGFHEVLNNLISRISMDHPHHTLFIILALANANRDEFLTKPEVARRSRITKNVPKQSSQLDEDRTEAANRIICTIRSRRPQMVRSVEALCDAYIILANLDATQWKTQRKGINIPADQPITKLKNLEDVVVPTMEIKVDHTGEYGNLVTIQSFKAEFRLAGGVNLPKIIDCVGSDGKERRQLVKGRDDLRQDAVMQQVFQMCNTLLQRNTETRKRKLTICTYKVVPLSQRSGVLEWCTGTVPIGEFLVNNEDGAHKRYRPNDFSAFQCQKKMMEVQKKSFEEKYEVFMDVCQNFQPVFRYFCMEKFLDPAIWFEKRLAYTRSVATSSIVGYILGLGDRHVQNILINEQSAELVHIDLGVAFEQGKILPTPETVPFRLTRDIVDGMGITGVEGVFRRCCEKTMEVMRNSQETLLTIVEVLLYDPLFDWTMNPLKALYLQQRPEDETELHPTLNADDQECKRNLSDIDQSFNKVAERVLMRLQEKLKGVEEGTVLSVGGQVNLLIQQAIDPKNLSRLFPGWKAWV
Assay type: cell-based
Summary of the method: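 NCI-H460 cells treated with compound for 1 hour, then irradiated with 8Gy and incubated 1 hour at 37° C. Phospho-Chk2 measured by AlphaScreen SureFire. Inhibition ratio calculated relative to untreated irradiated and non-irradiated wells.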
Work on `Cc1ccnc(C(C)Nc2ccc3c(c2)Cc2cccc(-c4cc(N5CCOCC5)cc(=O)[nH]4)c2O3)c1` (single isomer, unassigned) [Example 2-14-93-1, 6-(7-((1-(4-methylpyridin-2-yl)ethyl)amino)-9H-xanthen-4-yl)-4-morpholinopyridin-2(1H)-one] yielded an IC50 of 100 to 500 nM. `CCC(CC)(Nc1ccc2c(c1)Sc1cccc(-c3cc(N4CCOCC4)cc(=O)[nH]3)c1S2)c1ccc(C)cn1` [Example 1-50-6, 6-(7-((3-(5-Methylpyridin-2-yl)pentan-3-yl)amino)thianthren-1-yl)-4-morpholino pyridin-2(1H)-one] gave an IC50 of 500 to 2000 nM. Work on `Cc1nccc(C(C)Nc2ccc3c(c2)Sc2cccc(-c4cc(N5CCOCC5)cc(=O)[nH]4)c2S3)n1` (single isomer, unassigned) [Example 1-12-141-2, 6-(7-((1-(2-methylpyrimidin-4-yl)ethyl)amino)thianthren-1-yl)-4-morpholinopyridin-2(1H)-one] yielded an IC50 of 100 to 500 nM. Work on `O=c1cc(N2CCOCC2)cc(-c2cccc3c2Oc2ccc(NC4CCN(c5ccncc5)CC4)cc2C3)[nH]1` [Example 2-2-22, 4-Morpholino-6-(7-((1-(pyridin-4-yl)piperidin-4-yl)amino)-9H-xanthen-4-yl) pyridin-2(1H)-one] yielded an IC50 of less than 100 nM. With `COc1cncc(CNc2ccc3c(c2)Cc2cccc(-c4cc(N5CCOCC5)cc(=O)[nH]4)c2N3C)c1` [Example 7, 6-(7-(((5-Methoxypyridin-3-yl)methyl)amino)-10-methyl-9,10-dihydroacridin-4-yl)-4-morpholinopyridin-2(1H)-one] the IC50 was 500 to 2000 nM. Compound `Cc1ccc(C(Nc2ccc3c(c2)Sc2cccc(-c4cc(N5CCOCC5)cc(=O)[nH]4)c2S3)[C@@H]2CN(C)CCO2)nc1` (single isomer, unassigned) [Example 1-56-10] has an IC50 of less than 100 nM. Compound `CN1CC(CNc2ccc3c(c2)Sc2cccc(-c4cc(N5CCOCC5)cc(=O)[nH]4)c2S3)C1` [Example 1-2-1, 6-(7-(((1-methylazetidin-3-yl)methyl)amino)thianthren-1-yl)-4-morpholinopyridin-2(1H)-one] has an IC50 of 100 to 500 nM. `CCC(Nc1ccc2c(c1)Sc1cccc(-c3cc(N4CCOCC4)cc(=O)[nH]3)c1S2)c1cncc(OC)c1` (centres unmarked) [Example 1-12-17, 6-(7-((1-(5-Methoxypyridin-3-yl)propyl)amino)thianthren-1-yl)-4-morpholino pyridin-2(1H)-one] gave an IC50 of 100 to 500 nM. `Cc1ccc(C(C[C@@H]2CCCN2)Nc2ccc3c(c2)Sc2cccc(-c4cc(N5CCOCC5)cc(=O)[nH]4)c2S3)nc1` (single isomer, unassigned) [Example 12-1] gave an IC50 of 100 to 500 nM. In the case of `Cc1cnc(C(CCN(C)CCF)Nc2ccc3c(c2)Sc2cccc(-c4cc(N5CCOCC5)cc(=O)[nH]4)c2S3)cn1` (single isomer, unassigned) [Example 10-3-6, 6-(7-((3-((2-Fluoroethyl) (methyl)amino)-1-(5-methylpyrazin-2-yl)propyl)amino)thianthren-1-yl)-4-morpholino pyridin-2(1H)-onc], the IC50 is reported as less than 100 nM. With `CC(CN1CCN(c2ccncc2)CC1)Nc1ccc2c(c1)Sc1cccc(-c3cc(N4CCOCC4)cc(=O)[nH]3)c1S2` (centres unmarked) [Example 1-13-16, 4-Morpholino-6-(7-((1-(4-(pyridin-4-yl)piperazin-1-yl)propan-2-yl)amino)thianthren-1-yl)pyridin-2 (1H)-one] the IC50 was 100 to 500 nM. With `O=c1cc(N2CCOCC2)cc(-c2cccc3c2Oc2ccc(NCc4cnccn4)cc2C3)[nH]1` [Example 2-3-5, 4-Morpholino-6-(7-((pyrazin-2-ylmethyl)amino)-9H-xanthen-4-yl)pyridin-2(1H)-one] the IC50 was 100 to 500 nM. `O=c1cc(N2CCOCC2)cc(-c2cccc3c2Oc2ccc(NCc4ccc(CO)o4)cc2C3)[nH]1` [Example 2-13-3, 6-(7-(((5-(Hydroxymethyl)furan-2-yl)methyl)amino)-9H-xanthen-4-yl)-4-morpholino pyridin-2(1H)-one] gave an IC50 of 500 to 2000 nM. `Cc1ccc(C(CC(C)C)Nc2ccc3c(c2)Sc2cccc(-c4cc(N5CCOCC5)cc(=O)[nH]4)c2S3)nc1` (centres unmarked) [Example 1-12-120, 6-(7-((3-Methyl-1-(5-methylpyridin-2-yl)butyl)amino)thianthren-1-yl)-4-morpholino pyridin-2(1H)-one] was tested, and the IC50 was 100 to 500 nM. For `O=c1cc(N2CCOCC2)cc(-c2cccc3c2Sc2ccc(NC4CCCCC4Cl)cc2S3)[nH]1` (centres unmarked) [Example 1-12-72, 6-(7-((2-Chlorocyclohexyl)amino)thianthren-1-yl)-4-morpholino pyridin-2(1H)-one], the IC50 was 500 to 2000 nM. Work on `Cc1ccc(C(Nc2ccc3c(c2)Sc2cccc(-c4cc(N5CCOCC5)cc(=O)[nH]4)c2S3)C2CCC2)nc1` (centres unmarked) [Example 1-12-124, 6-(7-((Cyclobutyl(5-methylpyridin-2-yl)methyl)amino)thianthren-1-yl)-4-morpholino pyridin-2(1H)-one] yielded an IC50 of 100 to 500 nM. Compound `O=c1cc(N2CCOCC2)cc(-c2cccc3c2Oc2ccc(NC4CCN(CCc5ccc(CO)cc5)CC4)cc2C3)[nH]1` [Example 2-30-17, 6-(7-((1-(4-(Hydroxymethyl)phenethyl)piperidin-4-yl)amino)-9H-xanthen-4-yl)-4-morpholino pyridin-2 (1H)-one] has an IC50 of 100 to 500 nM. For `O=C(N[C@H]1CC[C@H](Nc2ccc3c(c2)Cc2cccc(-c4cc(N5CCOCC5)cc(=O)[nH]4)c2O3)CC1)OCc1ccccc1` [Example 2-2-54, Benzyl ((trans)-4-((5-(4-morpholino-6-oxo-1,6-dihydropyridin-2-yl)-9H-xanthen-2-yl)amino)cyclohexyl)carbamate], the IC50 was 500 to 2000 nM. Compound `COc1cccc(CNc2ccc3c(c2)Cc2cccc(-c4cc(N5CCOCC5)cc(=O)[nH]4)c2O3)n1` [Example 2-2-32, 6-(7-(((6-Methoxypyridin-2-yl)methyl)amino)-9H-xanthen-4-yl)-4-morpholino pyridin-2(1H)-one] has an IC50 of 100 to 500 nM. With `CC(Nc1ccc2c(c1)Sc1cccc(-c3cc(N4CCOCC4)cc(=O)[nH]3)c1S2)c1ncc(CN2CCCC2)cn1` (centres unmarked) [Example 1-12-94, 4-Morpholino-6-(7-((1-(5-(pyrrolidin-1-ylmethyl)pyrimidin-2-yl)ethyl)amino)thianthren-1-yl)pyridin-2 (1H)-one] the IC50 was 100 to 500 nM. `CC1CCCN(CC(CO)Nc2ccc3c(c2)Sc2cccc(-c4cc(N5CCOCC5)cc(=O)[nH]4)c2S3)C1` (centres unmarked) [Example 1-37-1, 6-(7-((1-hydroxy-3-(3-methylpiperidin-1-yl)propan-2-yl)amino)thianthren-1-yl)-4-morpholinopyridin-2(1H)-one] showed an IC50 of 100 to 500 nM. `COc1cncc(CN2CCC(Nc3ccc4c(c3)Sc3cccc(-c5cc(N6CCOCC6)cc(=O)[nH]5)c3S4)CC2)c1` [Example 1-24-16, 6-(7-((1-((5-Methoxypyridin-3-yl)methyl)piperidin-4-yl)amino)thianthren-1-yl)-4-morpholinopyridin-2(1H)-one] was tested, and the IC50 was 100 to 500 nM. `CC(Nc1ccc2c(c1)Sc1cccc(-c3cc(N4CCOCC4)cc(=O)[nH]3)c1S2)c1ncc(CO)cn1` (single isomer, unassigned) [Example 1-12-142-2, 6-(7-((1-(5-(hydroxymethyl)pyrimidin-2-yl)ethyl)amino)thianthren-1-yl)-4-morpholinopyridin-2(1H)-one] gave an IC50 of 100 to 500 nM. `CC(CN1CC(C)OC(C)C1)Nc1ccc2c(c1)Sc1cccc(-c3cc(N4CCOCC4)cc(=O)[nH]3)c1S2` (centres unmarked) [Example 1-13-11, 6-(7-((1-(2,6-Dimethylmorpholino)propan-2-yl)amino)thianthren-1-yl)-4-morpholino pyridin-2(1H)-one] was tested, and the IC50 was less than 100 nM. For `CCN1CCC(C(Nc2ccc3c(c2)Sc2cccc(-c4cc(N5CCOCC5)cc(=O)[nH]4)c2S3)c2ccc(C)cn2)CC1` (centres unmarked) [Example 1-56-1, 6-(7-(((1-ethylpiperidin-4-yl)(5-methylpyridin-2-yl)methyl)amino)thianthren-1-yl)-4-morpholinopyridin-2(1H)-one], the IC50 was less than 100 nM. With `Cc1cncc(CNc2ccc3c(c2)Sc2cccc(-c4cc(N5CCOCC5)cc(=O)[nH]4)c2S3)n1` [Example 1-12-60, 6-(7-(((6-Methylpyrazin-2-yl)methyl)amino)thianthren-1-yl)-4-morpholino pyridin-2(1H)-one] the IC50 was 100 to 500 nM. In the case of `COc1cc(CNc2ccc3c(c2)Sc2cccc(-c4cc(N5CCOCC5)cc(=O)[nH]4)c2O3)ccn1` [Example 4-8-4, 6-(8-(((2-Methoxypyridin-4-yl)methyl)amino)phenoxathiin-4-yl)-4-morpholino pyridin-2(1H)-one], the IC50 is reported as 100 to 500 nM. Compound `Nc1ncccc1CNc1ccc2c(c1)Sc1cccc(-c3cc(N4CCOCC4)cc(=O)[nH]3)c1O2` [Example 4-8-20, 6-(8-(((2-Aminopyridin-3-yl)methyl)amino)phenoxathiin-4-yl)-4-morpholino pyridin-2(1H)-one] has an IC50 of 500 to 2000 nM. Work on `CNc1ncccc1CNc1ccc2c(c1)Sc1cccc(-c3cc(N4CCOCC4)cc(=O)[nH]3)c1O2` [Example 4-8-21, 6-(8-(((2-(Methylamino)pyridin-3-yl)methyl)amino)phenoxathiin-4-yl)-4-morpholino pyridin-2(1H)-one] yielded an IC50 of 100 to 500 nM. Work on `O=c1cc(N2CCOCC2)cc(-c2ccc(F)c3c2Oc2ccc(NCc4cccc(Cl)n4)cc2C3)[nH]1` [Example 2-44-1, 6-(7-(((6-Chloropyridin-2-yl)methyl)amino)-1-fluoro-9H-xanthen-4-yl)-4-morpholinopyridin-2(1H)-one] yielded an IC50 of 100 to 500 nM. For `COC[C@H](CN(C(C)C)C(C)C)Nc1ccc2c(c1)Sc1cccc(-c3cc(N4CCOCC4)cc(=O)[nH]3)c1S2` [Example 1-46-14, (S)-6-(7-((1-(Diisopropylamino)-3-methoxypropan-2-yl)amino)thianthren-1-yl)-4-morpholino pyridin-2(1H)-one], the IC50 was 100 to 500 nM. `O=c1cc(N2CCOCC2)cc(-c2cccc3c2Sc2ccc(NCCN4CCC(O)CC4)cc2S3)[nH]1` [Example 1-10-8, 6-(7-((2-(4-Hydroxypiperidin-1-yl)ethyl)amino)thianthren-1-yl)-4-morpholino pyridin-2(1H)-one] was tested, and the IC50 was 500 to 2000 nM.
